Measurements published in patent publication US20020072606A1, “Chemokine receptor antagonists” (Warner-Lambert Company, priority 1999, published 2002).
Where a name gives a salt, the structure may show the parent alone.

| melting point | Compound |
| --- | --- |
| 195 °C (dec.) | CCC[C@@]12CC3C[C@H](O)CCC3CN1CCc1c2[nH]c2ccccc12 (stereo partly drawn) [Example 3, [2R-(2α,4aα,13β,14aβ)]-13b-Propyl-1,2,3,4,4a,5,7,8,13,13b,14,14a-dodecahydro-indolo[2′,3′:3,4]pyrido[1,2-b]isoquinolin-2-ol] |
| 222 to 225 °C | CCCC[C@@]12CC3C[C@H](O)/C(=C/c4ccccc4)CC3CN1CCc1c2[nH]c2ccccc12 (stereo partly drawn) [Example 12, [2S-(2α,4aα,13β,14aβ)]-3-Benzylidine-13b-butyl-1,2,3,4,4a,5,7,8,13,13b,14,14a-dodecahydro-1-indolo[2′,3′:3,4]pyrido[1,2-b]-isoquinolin-2-ol] |
| 118 to 121 °C | COc1ccc(/C=C2\CC3CN4CCc5c([nH]c6ccccc56)[C@]4(C)CC3C[C@@H]2O)cc1OC (stereo partly drawn) [Example 22, [2R-[2α(E),4aα, 13bβ, 14aβ]]-3-(3,4-Dimethoxy-benzylidene)-13b-methyl-1,2,3,4,4a,5,7,8,13,13b,14,14a-dodecahydro-indolo[2′,3′:3,4]pyrido[1,2-b]-isoquinolin-2-ol] |
| 224 to 226 °C | CCC[C@@]12CC3C[C@H](O)/C(=C/c4ccccc4)CC3CN1CCc1c2[nH]c2ccccc12 (stereo partly drawn) [Example 11, [2S-(2α,4aα,13β, 14aβ)]-3-Benzylidine-13b-propyl-1,2,3,4,4a,5,7,8,13,13b,14,14a-dodecahydro-indolo[2′,3′:3,4]pyrido[1,2-b]-isoquinolin-2-ol] |
| 203 to 210 °C | C[C@@]12CC3CC(N)/C(=C/c4ccccc4)CC3CN1CCc1c2[nH]c2ccccc12 (stereo in doubt) (as salt: trifluoroacetic acid salt) [Example 28, 3-Benzylidene-13b-methyl-1,2,3,4,4a,5,7,8,13,13b,14,14a-dodecahydro-indolo[2′,3′: 3,4]pyrido[1,2-b]isoquinolin-2-ylamine] |
| 120 to 125 °C | COc1ccc(/C=C2\CC3CN4CCc5c([nH]c6ccccc56)[C@]4(C)CC3CC2=O)cc1OC (stereo partly drawn) [Example 18, [4aR-[(E),4aα, 13bβ, 14aβ]]-3-(3,4-Dimethoxy-benzylidene)-13b-methyl-3,4,4a,5,7,8,13,13b,14,14a-decahydro-1H-indolo[2′,3′:3,4]pyrido[1,2-b]-isoquinolin-2-one] |
| 110 to 120 °C | COc1cc(/C=C2\CC3CN4CCc5c([nH]c6ccccc56)[C@]4(C)CC3CC2=O)cc(OC)c1 (stereo partly drawn) [Example 20, [4aR-[(E),4aα,13bβ, 14aβ]]-3-(3,5-Dimethoxy-benzylidene)-13b-methyl-3,4,4a,5,7,8,13,13b,14,14a-decahydro-1H-indolo[2′,3′:3,4]pyrido[1,2-b]-isoquinolin-2-one] |
| 211 to 213 °C | C=CC[C@@]12CC3C[C@H](O)/C(=C/c4ccccc4)CC3CN1CCc1c2[nH]c2ccccc12 (stereo partly drawn) [Example 10, [2S-(2α,4aα,13β,14aα)]-13b-Allyl-3-benzylidene-1,2,3,4,4a,5,7,8,13,13b,14,14a-dodecahydro-indolo[2′,3′:3,4]pyrido[1,2-b]isoquinolin-2-ol] |
| 128 to 132 °C | COc1cc(/C=C2\CC3CN4CCc5c([nH]c6ccccc56)[C@]4(C)CC3C[C@@H]2O)cc(OC)c1 (stereo partly drawn) [Example 24, [2R-[2α(E),4aα,13bβ,14aβ]]-3-(3,5-Dimethoxy-benzylidene)-13b-methyl-1,2,3,4,4a,5,7,8,13,13b,14,14a-dodecahydro-indolo[2′,3′:3,4]pyrido[1,2-b]-isoquinolin-2-ol] |
| 125 to 130 °C | COc1cccc(/C=C2\CC3CN4CCc5c([nH]c6ccccc56)[C@]4(C)CC3CC2=O)c1 (stereo partly drawn) [Example 19, [4aR-[(E),4aα, 13bβ,14aβ]]3-(3-Methoxy-benzylidene)-13b-methyl-3,4,4a, 5,7,8,13,13b,14,14a-decahydro-1H-indolo[2′,3′:3,4]pyrido[1,2-b]-isoquinolin-2-one] |
| 235 °C (dec.) | CCCC[C@@]12CC3C[C@H](O)CCC3CN1CCc1c2[nH]c2ccccc12 (stereo partly drawn) [Example 1, [2R-(2α,4aα,13β,14aβ)]-13b-Butyl-1,2,3,4,4a,5,7,8,13,13b,14,14a-dodecahydro-indolo[2′,3′:3,4]pyrido[1,2-b]isoquinolin-2-ol] |
| 255 °C (dec.) | CCC[C@@]12CC3CC(=O)CCC3CN1CCc1c2[nH]c2ccccc12 (stereo partly drawn) [Example 6, [2R-(2α,4aα, 13β, 14aβ)]-13b-Propyl-3,4,4a,5,7,8,13,13b,14,14a-decahydro-1H-indolo[2′,3′;3,4]pyrido[1,2-b]isoquinolin-2-one] |
| 125 to 130 °C | C[C@@]12CC3C[C@H](O)/C(=C/c4ccc(Cl)c(Cl)c4)CC3CN1CCc1c2[nH]c2ccccc12 (stereo partly drawn) [Example 25, [2R-[2α(E),4aα,13bβ, 14aβ]]-3-(3,4-Dichloro-benzylidene)-13b-methyl-1,2,3,4,4a,5,7,8,13,13b,14,14a-dodecahydro-indolo[2′,3′:3,4]pyrido[1,2-b]-isoquinolin-2-ol] |
| 220 to 223 °C | C=CC[C@@]12CC3CC(=O)CCC3CN1CCc1c2[nH]c2ccccc12 (stereo partly drawn) [Example 5, [2R-(2α,4aα,13β,14aβ)]-13b-Allyl-3,4,4a,5,7,8,13,13b,14,14a-decahydro-1H-indolo[2′,3′:3,4]pyrido[1,2-b]isoquinolin-2-one] |
| 228 to 230 °C | C=CC[C@@]12CC3C[C@H](O)CCC3CN1CCc1c2[nH]c2ccccc12 (stereo partly drawn) [Example 2, [2R-(2α,4aα, 13β,14aβ)]-13b-Allyl-1,2,3,4,4a,5,7,8,13,13b,14,14a-dodecahydro-indolo[2′,3′:3,4]pyrido[1,2-b]isoquinolin-2-ol] |
| 142 to 145 °C | C[C@@]12CC3CC(=NO)/C(=C/c4ccccc4)CC3CN1CCc1c2[nH]c2ccccc12 (stereo partly drawn) [Example 27, [4aR-[(E),4aα,13bβ,14aβ]]-3-Benzylidene-13b-methyl-3,4,4a,5,7,8,13,13b,14,14a-decahydro-1H-indolo[2′,3′:3,4]pyrido[1 ,2-b]-isoquinolin-2-one oxime] |
| 140 to 142 °C | COc1cccc(/C=C2\CC3CN4CCc5c([nH]c6ccccc56)[C@]4(C)CC3C[C@@H]2O)c1 (stereo partly drawn) [Example 23] |
| 140 to 145 °C | C[C@@]12CC3CC(=O)/C(=C/c4ccc(Cl)c(Cl)c4)CC3CN1CCc1c2[nH]c2ccccc12 (stereo partly drawn) [Example 21, [4aR-[(E),4aα,13bβ, 14aβ]]-3-(3,4-Dichloro-benzylidene)-13b-methyl-3,4,4a,5,7,8,13,13b,14,14a-decahydro-1H-indolo[2′,3′:3,4]pyrido[1,2-b]-isoquinolin-2-one] |
